From ChEMBL document CHEMBL1201862, “PubChem BioAssay data set” (2004)
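Interpolation was linear, between the two tested concentrations surrounding the appropriate level; five concentrations were tested over 48 hours in 96-well plates. GI50 = concentration required for 50% inhibition of growth.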 Calls of active or inactive are those of the source. Rule as the data show it: active = GI50 up to about 1.1 µM and inactive = higher.

How the values were obtained:
Experiment in all cases: inhibition of tumour cell growth, NCI panel, 48 h
786-0 = test system: 786-0
A498 = test system: A498
A549 = test system: A549
ACHN = test system: ACHN
BT-549 = test system: BT-549
CAKI-1 = test system: CAKI-1
CCRF-CEM = test system: CCRF-CEM
COLO 205 = test system: COLO 205
EKVX = test system: EKVX
HCC 2998 = test system: HCC 2998
HCT-116 = test system: HCT-116
HCT-15 = test system: HCT-15
HL-60 = test system: HL-60
HOP-62 = test system: HOP-62
HOP-92 = test system: HOP-92
HT-29 = test system: HT-29
Hs-578T = test system: Hs-578T
IGROV-1 = test system: IGROV-1
K562 = test system: K562
KM12 = test system: KM12
LOX IMVI = test system: LOX IMVI
M14 = test system: M14
MDA-MB-231 = test system: MDA-MB-231
MDA-MB-435 = test system: MDA-MB-435
MDA-N = test system: MDA-N
MOLT-4 = test system: MOLT-4
Malme-3M = test system: Malme-3M
NCI-H226 = test system: NCI-H226
NCI-H23 = test system: NCI-H23
NCI-H460 = test system: NCI-H460
NCI-H522 = test system: NCI-H522
NCI/ADR-RES = test system: NCI/ADR-RES
OVCAR-3 = test system: OVCAR-3
OVCAR-4 = test system: OVCAR-4
OVCAR-5 = test system: OVCAR-5
OVCAR-8 = test system: OVCAR-8
PC-3 = test system: PC-3
RPMI-8226 = test system: RPMI-8226
RXF 393 = test system: RXF 393
SF-268 = test system: SF-268
SF-295 = test system: SF-295
SF-539 = test system: SF-539
SK-MEL-28 = test system: SK-MEL-28
SK-MEL-2 = test system: SK-MEL-2
SK-MEL-5 = test system: SK-MEL-5
SK-OV-3 = test system: SK-OV-3
SN12C = test system: SN12C
SNB-19 = test system: SNB-19
SNB-75 = test system: SNB-75
SR = test system: SR
SW-620 = test system: SW-620
T47D = test system: T47D
TK-10 = test system: TK-10
U-251 = test system: U-251
UACC-257 = test system: UACC-257
UACC-62 = test system: UACC-62
UO-31 = test system: UO-31
DU-145 = test system: DU-145
MCF7 = test system: MCF7

Oc1cccc(Nc2cc(O)nc(O)n2)c1
GI50 (786-0): > 100 µM (inactive)
GI50 (A498): > 100 µM (inactive)
GI50 (A549): > 100 µM (inactive)
GI50 (ACHN): > 100 µM (inactive)
GI50 (BT-549): > 100 µM (inactive)
GI50 (CAKI-1): > 100 µM (inactive)
GI50 (CCRF-CEM): > 100 µM (inactive)
GI50 (COLO 205): > 100 µM (inactive)
GI50 (EKVX): > 100 µM (inactive)
GI50 (HCC 2998): > 100 µM (inactive)
GI50 (HCT-116): > 100 µM (inactive)
GI50 (HCT-15): > 100 µM
GI50 (HL-60): > 100 µM (inactive)
GI50 (HOP-62): > 100 µM (inactive)
GI50 (HOP-92): 66.8 µM (inactive)
GI50 (HT-29): > 100 µM (inactive)
GI50 (Hs-578T): > 100 µM (inactive)
GI50 (IGROV-1): > 100 µM (inactive)
GI50 (K562): > 100 µM (inactive)
GI50 (KM12): > 100 µM (inactive)
GI50 (LOX IMVI): > 100 µM (inactive)
GI50 (M14): > 100 µM (inactive)
GI50 (MDA-MB-231): > 100 µM (inactive)
GI50 (MDA-MB-435): > 100 µM (inactive)
GI50 (MDA-N): > 100 µM (inactive)
GI50 (MOLT-4): > 100 µM (inactive)
GI50 (Malme-3M): > 100 µM (inactive)
GI50 (NCI-H226): > 100 µM (inactive)
GI50 (NCI-H23): > 100 µM (inactive)
GI50 (NCI-H460): > 100 µM (inactive)
GI50 (NCI-H522): > 100 µM (inactive)
GI50 (NCI/ADR-RES): > 100 µM (inactive)
GI50 (OVCAR-3): > 100 µM (inactive)
GI50 (OVCAR-4): > 100 µM (inactive)
GI50 (OVCAR-5): > 100 µM (inactive)
GI50 (OVCAR-8): > 100 µM (inactive)
GI50 (PC-3): > 100 µM (inactive)
GI50 (RPMI-8226): > 100 µM (inactive)
GI50 (RXF 393): > 100 µM (inactive)
GI50 (SF-268): > 100 µM (inactive)
GI50 (SF-295): > 100 µM (inactive)
GI50 (SF-539): > 100 µM (inactive)
GI50 (SK-MEL-28): > 100 µM (inactive)
GI50 (SK-MEL-2): > 100 µM (inactive)
GI50 (SK-MEL-5): > 100 µM (inactive)
GI50 (SK-OV-3): 67.9 µM (inactive)
GI50 (SN12C): > 100 µM (inactive)
GI50 (SNB-19): > 100 µM (inactive)
GI50 (SNB-75): > 100 µM (inactive)
GI50 (SR): > 100 µM (inactive)
GI50 (SW-620): > 100 µM (inactive)
GI50 (T47D): > 100 µM (inactive)
GI50 (TK-10): > 100 µM (inactive)
GI50 (U-251): > 100 µM (inactive)
GI50 (UACC-257): > 100 µM (inactive)
GI50 (UACC-62): > 100 µM (inactive)
GI50 (UO-31): > 100 µM (inactive)

C=CCOCn1ccc(=O)[nH]c1=O
GI50 (786-0): > 100 µM (inactive)
GI50 (A498): > 100 µM (inactive)
GI50 (A549): > 100 µM (inactive)
GI50 (ACHN): > 100 µM (inactive)
GI50 (BT-549): > 100 µM (inactive)
GI50 (CAKI-1): > 100 µM (inactive)
GI50 (CCRF-CEM): > 100 µM (inactive)
GI50 (COLO 205): > 100 µM (inactive)
GI50 (DU-145): > 100 µM (inactive)
GI50 (EKVX): > 100 µM (inactive)
GI50 (HCC 2998): > 100 µM (inactive)
GI50 (HCT-116): > 100 µM (inactive)
GI50 (HCT-15): > 100 µM
GI50 (HL-60): > 100 µM (inactive)
GI50 (HOP-62): > 100 µM (inactive)
GI50 (HT-29): > 100 µM (inactive)
GI50 (Hs-578T): > 100 µM (inactive)
GI50 (IGROV-1): > 100 µM (inactive)
GI50 (K562): > 100 µM (inactive)
GI50 (KM12): > 100 µM (inactive)
GI50 (LOX IMVI): > 100 µM (inactive)
GI50 (M14): > 100 µM (inactive)
GI50 (MCF7): > 100 µM (inactive)
GI50 (MDA-MB-231): > 100 µM (inactive)
GI50 (MDA-MB-435): > 100 µM (inactive)
GI50 (MDA-N): > 100 µM (inactive)
GI50 (MOLT-4): > 100 µM (inactive)
GI50 (Malme-3M): 94.4 µM (inactive)
GI50 (NCI-H226): > 100 µM (inactive)
GI50 (NCI-H23): > 100 µM (inactive)
GI50 (NCI-H460): > 100 µM (inactive)
GI50 (NCI-H522): > 100 µM (inactive)
GI50 (OVCAR-8): > 100 µM (inactive)
GI50 (PC-3): > 100 µM (inactive)
GI50 (RPMI-8226): > 100 µM (inactive)
GI50 (SF-268): > 100 µM (inactive)
GI50 (SF-295): > 100 µM (inactive)
GI50 (SF-539): > 100 µM (inactive)
GI50 (SK-MEL-28): > 100 µM (inactive)
GI50 (SK-MEL-5): > 100 µM (inactive)
GI50 (SK-OV-3): > 100 µM (inactive)
GI50 (SN12C): > 100 µM (inactive)
GI50 (SNB-19): > 100 µM (inactive)
GI50 (SNB-75): > 100 µM (inactive)
GI50 (SR): > 100 µM (inactive)
GI50 (SW-620): > 100 µM (inactive)
GI50 (T47D): > 100 µM (inactive)
GI50 (TK-10): > 100 µM (inactive)
GI50 (UACC-257): > 100 µM (inactive)
GI50 (UACC-62): > 100 µM (inactive)
GI50 (UO-31): > 100 µM (inactive)
